# Read-outs that look alike come from different tables or passages of the source.
# Assays:
# Test in all cases: Kinase panel
# Assay type in all cases: biochemical
# CAMKIG = CAMKIG (Homo sapiens, UniProt Q96NX5); conditions: read-out: residual enzyme activity
# Summary of the method: (§1)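 Biochemical full-panel kinase assay with compounds tested at a single concentration of 1 µM. Values are residual enzyme activity. Kinases were flagged when residual activity was 40% or less, i.e. inhibition of 60% or more.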
# CDK2/CYCLIN E = CDK2/CYCLIN E (Homo sapiens, UniProt P24941); conditions: read-out: residual enzyme activity
# Summary of the method: as §1
# CDK5/P35 = CDK5/P35 (Homo sapiens, UniProt Q00535); conditions: read-out: residual enzyme activity
# Summary of the method: as §1
# CDK9/CYCLIN T2 = CDK9/CYCLIN T2 (Homo sapiens, UniProt P50750); conditions: CDK9/cyclin T2, 1 µM; read-out: residual enzyme activity
# Summary of the method: as §1
# CK2A2 = CK2A2 (Homo sapiens, UniProt P19784); conditions: read-out: residual enzyme activity
# Summary of the method: as §1
# DYRK1/DYRK1A = DYRK1/DYRK1A (Homo sapiens, UniProt Q13627); conditions: read-out: residual enzyme activity
# Summary of the method: as §1
# EPHB1 = EPHB1 (Homo sapiens, UniProt P54762); conditions: EPHB1, 1 µM; read-out: residual enzyme activity
# Summary of the method: as §1
# ERK1 = ERK1 (Homo sapiens, UniProt P27361); conditions: ERK1, 1 µM; read-out: residual enzyme activity
# Summary of the method: as §1
# FGFR1 = FGFR1 (Homo sapiens, UniProt P11362); conditions: FGFR1, 1 µM; read-out: residual enzyme activity
# Summary of the method: as §1
# HIPK3 = HIPK3 (Homo sapiens, UniProt Q9H422); conditions: HIPK3, 1 µM; read-out: residual enzyme activity
# Summary of the method: as §1
# KHS/MAP4K5 = KHS/MAP4K5 (Homo sapiens, UniProt Q9Y4K4); conditions: KHS/MAP4K5, 1 µM; read-out: residual enzyme activity
# Summary of the method: as §1
# LATS1 = LATS1 (Homo sapiens, UniProt O95835); conditions: LATS1, 1 µM; read-out: residual enzyme activity
# Summary of the method: as §1
# LIMK2 = LIMK2 (Homo sapiens, UniProt P53671); conditions: LIMK2, 1 µM; read-out: residual enzyme activity
# Summary of the method: as §1
# LYN B = LYN B (Homo sapiens, UniProt P07948); conditions: read-out: residual enzyme activity
# Summary of the method: as §1
# MARK2/PAR-IBA = MARK2/PAR-IBA (Homo sapiens, UniProt Q7KZI7); conditions: read-out: residual enzyme activity
# Summary of the method: as §1
# MASTL = MASTL (Homo sapiens, UniProt Q96GX5); conditions: read-out: residual enzyme activity
# Summary of the method: as §1
# MEKK6 = MEKK6 (Homo sapiens, UniProt O95382); conditions: MEKK6, 1 µM; read-out: residual enzyme activity
# Summary of the method: as §1
# MLCK2/MYLK2 = MLCK2/MYLK2 (Homo sapiens, UniProt Q9H1R3); conditions: MLCK2/MYLK2, 1 µM; read-out: residual enzyme activity
# Summary of the method: as §1
# MNK1 = MNK1 (Homo sapiens, UniProt Q9BUB5); conditions: MNK1, 1 µM; read-out: residual enzyme activity
# Summary of the method: as §1
# MRCKB/CDC42BPB = MRCKB/CDC42BPB (Homo sapiens, UniProt Q9Y5S2); conditions: read-out: residual enzyme activity
# Summary of the method: as §1
# PIM1 = PIM1 (Homo sapiens, UniProt P11309); conditions: PIM1, 1 µM; read-out: residual enzyme activity
# Summary of the method: as §1
# PKCD = PKCD (Homo sapiens, UniProt Q05655); conditions: read-out: residual enzyme activity
# Summary of the method: as §1
# PKCMU/PRKD1 = PKCMU/PRKD1 (Homo sapiens, UniProt Q15139); conditions: PKCmu/PRKD1, 1 µM; read-out: residual enzyme activity
# Summary of the method: as §1
# PKG1B = PKG1B (Homo sapiens, UniProt Q13976); conditions: read-out: residual enzyme activity
# Summary of the method: as §1
# PLK4/SAK = PLK4/SAK (Homo sapiens, UniProt O00444); conditions: read-out: residual enzyme activity
# Summary of the method: as §1
# RSK2 = RSK2 (Homo sapiens, UniProt P51812); conditions: RSK2, 1 µM; read-out: residual enzyme activity
# Summary of the method: as §1
# SNARK/NUAK2 = SNARK/NUAK2 (Homo sapiens, UniProt Q9H093); conditions: SNARK/NUAK2, 1 µM; read-out: residual enzyme activity
# Summary of the method: as §1
# SSTK/TSSK6 = SSTK/TSSK6 (Homo sapiens, UniProt Q9BXA6); conditions: SSTK/TSSK6, 1 µM; read-out: residual enzyme activity
# Summary of the method: as §1
# STK39/STLK3 = STK39/STLK3 (Homo sapiens, UniProt Q9UEW8); conditions: STK39/STLK3, 1 µM; read-out: residual enzyme activity
# Summary of the method: as §1
# TLK1 = TLK1 (Homo sapiens, UniProt Q9UKI8); conditions: TLK1, 1 µM; read-out: residual enzyme activity
# Summary of the method: as §1
# TSSK2 = TSSK2 (Homo sapiens, UniProt Q96PF2); conditions: TSSK2, 1 µM; read-out: residual enzyme activity
# Summary of the method: as §1
# TSSK3/STK22C = TSSK3/STK22C (Homo sapiens, UniProt Q96PN8); conditions: read-out: residual enzyme activity
# Summary of the method: as §1
# ULK1 = ULK1 (Homo sapiens, UniProt O75385); conditions: ULK1, 1 µM; read-out: residual enzyme activity
# Summary of the method: as §1
# Chain of MASTL (Q96GX5 whole entry, species assumed): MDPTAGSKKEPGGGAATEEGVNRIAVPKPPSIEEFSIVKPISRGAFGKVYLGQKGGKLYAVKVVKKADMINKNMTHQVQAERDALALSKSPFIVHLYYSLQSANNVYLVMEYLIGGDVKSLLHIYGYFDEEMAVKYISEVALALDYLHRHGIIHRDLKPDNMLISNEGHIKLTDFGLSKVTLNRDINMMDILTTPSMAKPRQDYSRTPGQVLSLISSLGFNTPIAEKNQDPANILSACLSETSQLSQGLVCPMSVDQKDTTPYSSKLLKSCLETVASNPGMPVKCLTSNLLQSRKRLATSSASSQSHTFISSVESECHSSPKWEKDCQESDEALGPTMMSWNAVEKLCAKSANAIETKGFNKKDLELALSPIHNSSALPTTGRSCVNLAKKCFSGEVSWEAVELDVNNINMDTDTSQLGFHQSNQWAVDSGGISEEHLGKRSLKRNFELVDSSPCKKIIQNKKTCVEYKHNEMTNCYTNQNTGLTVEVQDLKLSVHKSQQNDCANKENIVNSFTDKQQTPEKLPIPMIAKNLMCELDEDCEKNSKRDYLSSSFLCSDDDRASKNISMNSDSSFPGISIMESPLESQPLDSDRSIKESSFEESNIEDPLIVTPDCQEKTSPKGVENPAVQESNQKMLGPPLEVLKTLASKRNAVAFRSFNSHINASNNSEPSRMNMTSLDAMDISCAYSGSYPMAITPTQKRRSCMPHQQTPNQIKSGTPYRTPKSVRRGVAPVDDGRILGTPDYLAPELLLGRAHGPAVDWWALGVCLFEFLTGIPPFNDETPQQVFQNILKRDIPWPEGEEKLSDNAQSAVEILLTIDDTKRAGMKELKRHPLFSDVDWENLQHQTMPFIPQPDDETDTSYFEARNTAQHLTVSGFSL
# Chain of MNK1 (Q9BUB5 whole entry, species assumed): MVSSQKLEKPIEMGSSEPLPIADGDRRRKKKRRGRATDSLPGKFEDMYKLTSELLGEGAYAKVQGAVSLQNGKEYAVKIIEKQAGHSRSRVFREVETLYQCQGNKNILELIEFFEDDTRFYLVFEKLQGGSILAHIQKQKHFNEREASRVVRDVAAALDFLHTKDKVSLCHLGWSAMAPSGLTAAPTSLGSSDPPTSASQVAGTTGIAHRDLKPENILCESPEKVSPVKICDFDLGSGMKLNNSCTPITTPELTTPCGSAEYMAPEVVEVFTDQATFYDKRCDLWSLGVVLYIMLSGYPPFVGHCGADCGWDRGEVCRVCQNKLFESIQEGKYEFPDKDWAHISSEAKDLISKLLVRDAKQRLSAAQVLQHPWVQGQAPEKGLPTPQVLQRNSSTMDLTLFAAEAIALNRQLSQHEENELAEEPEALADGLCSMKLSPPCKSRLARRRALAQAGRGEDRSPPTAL
# Chain of EPHB1 (P54762 18-984, species assumed): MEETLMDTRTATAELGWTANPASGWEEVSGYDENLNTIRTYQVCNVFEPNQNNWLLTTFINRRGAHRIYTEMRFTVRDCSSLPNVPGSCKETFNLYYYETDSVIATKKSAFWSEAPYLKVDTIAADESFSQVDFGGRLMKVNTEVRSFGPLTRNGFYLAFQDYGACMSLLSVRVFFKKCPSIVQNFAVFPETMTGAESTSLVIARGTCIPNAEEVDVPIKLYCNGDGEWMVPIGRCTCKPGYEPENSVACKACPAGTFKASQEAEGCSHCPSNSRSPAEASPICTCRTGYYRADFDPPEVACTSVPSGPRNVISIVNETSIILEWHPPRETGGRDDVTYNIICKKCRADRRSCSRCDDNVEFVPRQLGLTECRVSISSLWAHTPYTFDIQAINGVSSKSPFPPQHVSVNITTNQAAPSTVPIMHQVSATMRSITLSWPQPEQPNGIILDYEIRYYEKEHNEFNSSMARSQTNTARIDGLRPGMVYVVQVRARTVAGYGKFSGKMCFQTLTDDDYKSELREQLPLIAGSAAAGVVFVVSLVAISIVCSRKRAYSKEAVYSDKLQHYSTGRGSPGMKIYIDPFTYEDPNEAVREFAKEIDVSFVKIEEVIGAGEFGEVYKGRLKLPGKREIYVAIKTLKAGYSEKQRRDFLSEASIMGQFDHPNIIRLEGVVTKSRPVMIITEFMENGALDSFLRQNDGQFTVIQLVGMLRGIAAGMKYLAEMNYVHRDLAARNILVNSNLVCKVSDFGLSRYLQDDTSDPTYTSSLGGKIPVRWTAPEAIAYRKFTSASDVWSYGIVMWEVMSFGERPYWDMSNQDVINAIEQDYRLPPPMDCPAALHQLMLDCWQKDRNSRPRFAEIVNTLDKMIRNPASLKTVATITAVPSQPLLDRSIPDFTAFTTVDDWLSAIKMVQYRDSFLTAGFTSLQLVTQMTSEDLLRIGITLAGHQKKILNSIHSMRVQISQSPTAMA
# Chain of CAMKIG (Q96NX5 whole entry, species assumed): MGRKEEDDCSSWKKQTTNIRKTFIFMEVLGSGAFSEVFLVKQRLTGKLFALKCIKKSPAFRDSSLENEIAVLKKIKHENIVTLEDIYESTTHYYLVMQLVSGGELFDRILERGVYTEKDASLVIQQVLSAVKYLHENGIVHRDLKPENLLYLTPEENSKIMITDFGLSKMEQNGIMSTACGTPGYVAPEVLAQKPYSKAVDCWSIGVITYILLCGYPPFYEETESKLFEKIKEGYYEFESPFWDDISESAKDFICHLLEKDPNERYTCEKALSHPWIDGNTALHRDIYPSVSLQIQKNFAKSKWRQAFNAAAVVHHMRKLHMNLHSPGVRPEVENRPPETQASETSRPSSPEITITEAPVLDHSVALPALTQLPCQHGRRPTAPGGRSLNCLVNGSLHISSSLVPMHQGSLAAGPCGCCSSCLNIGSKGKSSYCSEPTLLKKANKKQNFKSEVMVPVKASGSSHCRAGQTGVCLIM
# Chain of TLK1 (Q9UKI8 whole entry, species assumed): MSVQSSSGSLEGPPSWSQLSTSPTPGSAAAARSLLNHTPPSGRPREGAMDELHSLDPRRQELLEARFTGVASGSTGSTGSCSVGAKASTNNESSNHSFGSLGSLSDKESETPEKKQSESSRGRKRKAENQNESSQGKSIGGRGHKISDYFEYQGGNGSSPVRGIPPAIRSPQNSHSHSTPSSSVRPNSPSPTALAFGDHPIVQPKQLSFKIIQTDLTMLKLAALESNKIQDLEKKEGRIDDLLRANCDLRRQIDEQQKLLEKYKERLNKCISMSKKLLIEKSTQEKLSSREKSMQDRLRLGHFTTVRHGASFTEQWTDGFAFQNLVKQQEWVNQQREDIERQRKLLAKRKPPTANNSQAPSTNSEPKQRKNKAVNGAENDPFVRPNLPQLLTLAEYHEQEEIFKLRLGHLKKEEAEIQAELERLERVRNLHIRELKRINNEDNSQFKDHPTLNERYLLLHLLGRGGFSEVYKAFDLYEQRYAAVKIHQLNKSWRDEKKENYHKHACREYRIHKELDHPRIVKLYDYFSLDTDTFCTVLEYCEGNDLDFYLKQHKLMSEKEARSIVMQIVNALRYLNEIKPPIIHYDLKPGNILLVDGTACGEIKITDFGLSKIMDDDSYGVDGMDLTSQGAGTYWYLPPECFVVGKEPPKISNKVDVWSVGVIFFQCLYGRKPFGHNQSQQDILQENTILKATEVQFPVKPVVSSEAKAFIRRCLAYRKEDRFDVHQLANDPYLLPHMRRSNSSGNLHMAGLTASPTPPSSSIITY
# Chain of TSSK2 (Q96PF2 whole entry, species assumed): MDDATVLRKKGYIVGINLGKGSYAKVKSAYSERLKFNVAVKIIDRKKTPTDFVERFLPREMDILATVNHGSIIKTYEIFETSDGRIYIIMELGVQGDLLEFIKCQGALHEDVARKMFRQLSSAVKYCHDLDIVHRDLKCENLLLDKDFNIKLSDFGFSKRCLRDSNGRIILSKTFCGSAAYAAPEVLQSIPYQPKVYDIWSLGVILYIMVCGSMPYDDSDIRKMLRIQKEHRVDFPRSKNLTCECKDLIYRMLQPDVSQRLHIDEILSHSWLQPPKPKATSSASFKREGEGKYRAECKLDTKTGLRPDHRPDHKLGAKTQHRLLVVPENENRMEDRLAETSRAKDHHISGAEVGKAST
# Chain of MARK2/PAR-IBA (Q7KZI7 whole entry): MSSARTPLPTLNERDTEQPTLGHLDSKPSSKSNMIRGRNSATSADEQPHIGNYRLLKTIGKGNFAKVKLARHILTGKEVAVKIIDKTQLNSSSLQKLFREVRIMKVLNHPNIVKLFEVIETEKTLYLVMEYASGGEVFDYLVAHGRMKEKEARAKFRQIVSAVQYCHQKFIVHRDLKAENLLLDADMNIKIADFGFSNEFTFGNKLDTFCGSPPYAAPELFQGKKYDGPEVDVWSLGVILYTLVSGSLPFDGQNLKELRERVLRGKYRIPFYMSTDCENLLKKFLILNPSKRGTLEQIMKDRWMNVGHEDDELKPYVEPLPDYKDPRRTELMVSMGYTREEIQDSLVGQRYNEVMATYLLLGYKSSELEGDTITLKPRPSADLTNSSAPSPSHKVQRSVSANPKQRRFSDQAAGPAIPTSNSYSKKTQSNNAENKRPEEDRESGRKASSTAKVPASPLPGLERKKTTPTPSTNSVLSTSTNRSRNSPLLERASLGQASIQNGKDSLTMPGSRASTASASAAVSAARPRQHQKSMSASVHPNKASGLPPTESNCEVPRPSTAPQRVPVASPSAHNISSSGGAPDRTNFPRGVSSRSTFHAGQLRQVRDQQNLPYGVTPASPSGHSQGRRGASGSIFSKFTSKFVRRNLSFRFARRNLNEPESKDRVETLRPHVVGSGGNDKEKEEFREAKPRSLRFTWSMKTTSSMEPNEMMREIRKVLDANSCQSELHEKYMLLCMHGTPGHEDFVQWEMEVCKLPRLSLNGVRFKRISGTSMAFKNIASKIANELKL
# Chain of PIM1 (P11309 whole entry, species assumed): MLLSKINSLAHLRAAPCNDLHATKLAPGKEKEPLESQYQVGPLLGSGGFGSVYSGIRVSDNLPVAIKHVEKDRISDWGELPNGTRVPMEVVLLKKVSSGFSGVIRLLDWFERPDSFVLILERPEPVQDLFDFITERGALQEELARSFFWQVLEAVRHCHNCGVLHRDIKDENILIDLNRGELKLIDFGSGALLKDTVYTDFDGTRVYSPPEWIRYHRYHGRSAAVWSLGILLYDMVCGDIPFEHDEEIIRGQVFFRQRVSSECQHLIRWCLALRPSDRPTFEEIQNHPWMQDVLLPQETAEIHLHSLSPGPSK
SMILES,remaining activity at 1 µM (CDK2/CYCLIN E) [%],remaining activity at 1 µM (CDK9/CYCLIN T2) [%],remaining activity at 1 µM (DYRK1/DYRK1A) [%],remaining activity at 1 µM (EPHB1) [%],remaining activity at 1 µM (ERK1) [%],remaining activity at 1 µM (FGFR1) [%],remaining activity at 1 µM (HIPK3) [%],remaining activity at 1 µM (KHS/MAP4K5) [%],remaining activity at 1 µM (LATS1) [%],remaining activity at 1 µM (LIMK2) [%],remaining activity at 1 µM (LYN B) [%],remaining activity at 1 µM (MASTL) [%],remaining activity at 1 µM (MEKK6) [%],remaining activity at 1 µM (MLCK2/MYLK2) [%],remaining activity at 1 µM (MNK1) [%],remaining activity at 1 µM (MRCKB/CDC42BPB) [%],remaining activity at 1 µM (PIM1) [%],remaining activity at 1 µM (PKCD) [%],remaining activity at 1 µM (PKCMU/PRKD1) [%],remaining activity at 1 µM (PLK4/SAK) [%],further results
"Cc1cn(-c2cc(C(=O)Nc3ccc(C)c(N4Cc5cnc(NC6CC6)nc5C5(CC5)C4=O)c3)cc(C(F)(F)F)c2)cn1 [Compound 8, N-(3-(2'-(cyclopropylamino)-7'-oxo-5'H-spiro[cyclopropane-1,8'-pyrido[4,3-d]pyrimidine]-6'(7'H)-yl)-4-methylphenyl)-3-(4-methyl-1H-imidazol-1-yl)-5-(trifluoromethyl)benzamide]",> 40,> 40,> 40,≤ 40,> 40,≤ 40,> 40,≤ 40,> 40,≤ 40,≤ 40,> 40,> 40,≤ 40,> 40,> 40,> 40,> 40,> 40,> 40,"remaining activity at 1 µM (CAMKIG; CAMKIG): > 40%; remaining activity at 1 µM (CDK5/P35; CDK5/P35, 1 µM): > 40%; remaining activity at 1 µM (CK2A2; CK2A2, 1 µM): > 40%; remaining activity at 1 µM (MARK2/PAR-IBA; MARK2/PAR-IBA): > 40%; remaining activity at 1 µM (PKG1B; PKG1B): > 40%; remaining activity at 1 µM (RSK2): > 40%; remaining activity at 1 µM (SNARK/NUAK2): > 40%; remaining activity at 1 µM (SSTK/TSSK6): > 40%; remaining activity at 1 µM (STK39/STLK3): > 40%; remaining activity at 1 µM (TLK1): > 40%; remaining activity at 1 µM (TSSK2): > 40%; remaining activity at 1 µM (TSSK3/STK22C): > 40%; remaining activity at 1 µM (ULK1): > 40%"
"Cc1ccc(Nc2ncc3c(n2)C2(CC2)C(=O)N(c2cc(NC(=O)c4cccc(C(F)(F)F)c4)ccc2C)C3)cn1 [Compound 51, N-(4-methyl-3-(2'-((6-methylpyridin-3-yl)amino)-7'-oxo-5'H-spiro[cyclopropane-1,8'-pyrido[4,3-d]pyrimidine]-6'(7'H)-yl)phenyl)-3-(trifluoromethyl)benzamide]",> 40,> 40,> 40,≤ 40,> 40,≤ 40,> 40,≤ 40,> 40,≤ 40,≤ 40,> 40,> 40,≤ 40,> 40,> 40,> 40,> 40,> 40,> 40,"remaining activity at 1 µM (CAMKIG; CAMK1g): > 40%; remaining activity at 1 µM (CDK5/P35; CDK5/p35, 1 µM): > 40%; remaining activity at 1 µM (CK2A2; CK2a2, 1 µM): > 40%; remaining activity at 1 µM (MARK2/PAR-IBA; MARK2/PAR-IBa): > 40%; remaining activity at 1 µM (PKG1B; PKG1b): > 40%; remaining activity at 1 µM (RSK2): > 40%; remaining activity at 1 µM (SNARK/NUAK2): > 40%; remaining activity at 1 µM (SSTK/TSSK6): > 40%; remaining activity at 1 µM (STK39/STLK3): > 40%; remaining activity at 1 µM (TLK1): > 40%; remaining activity at 1 µM (TSSK2): > 40%; remaining activity at 1 µM (TSSK3/STK22C): > 40%; remaining activity at 1 µM (ULK1): > 40%"
